Laboratory results as given in patent US7723021B2, “Methods for treating lentivirus infections” (The J. David Gladstone Institutes, priority 2003, dated 2010).
Residues, ends and D or L forms follow the SMILES beside them. *: point of attachment. Cbz = O=C(OCc1ccccc1)*

System: Vif-mediated degradation of APOBEC3G (luc-APOBEC3G)
Experiment: Vif/luc-APOBEC3G HeLa cell line luciferase assay
Type: cell-based
Source text: The following is one non-limiting example of a suitable assay for identifying agents that reduce Vif-induced degradation of APOBEC3G. Mammalian cells (e.g., an immortalized cell line) are stably transfected with an expression vector that includes a coding sequence for a luciferase-APOBEC3G fusion protein, such that the cells synthesize the luciferase-APOBEC3G (luc-APOBEC3G) fusion protein. A substrate for luciferase is provided in the cell medium, such that the substrate enters the cell, and is acted on by the luciferase portion of the luciferase-APOBEC3G to yield a luminescent product. The level of luciferase in the cell is detected using a luminometer, and the level of luc-APOBEC3G is expressed as relative light units. The cells are transfected with an expression vector that includes a coding sequence for Vif to yield a Vif/luc-APOBEC3G cell. Because Vif induces degradation of luc-APOBEC3G, the presence of Vif protein in the Vif/luc-APOBEC3G cell reduces the level of luc-APOBEC3G, compared to the level of luc-APOBEC3G in the absence of Vif. When the Vif/luc-APOBEC3G cell is contacted with a test agent that reduces Vif-induced APOBEC3G degradation, the level of luc-APOBEC3G increases relative to the level of luc-APOBEC3G in the Vif/luc-APOBEC3G cell in the absence of the test agent.
Several cell lines were constructed that could serve as the basis for a high-throughput assay for inhibitors of HIV-1 Vif action. The cell lines produce Vif and an APOBEC3G fusion protein composed of APOBEC3G fused to a heterologous protein that provides a detectable signal. One such cell line was constructed as follows. HeLa cells were co-transfected with both a Vif expression vector and a vector expressing APOBEC3G tagged with renilla-luciferase (luc-APOBEC3G), to generate a Vif/luc-APOBEC3G cell line. […]
The Vif/luc-APOBEC3G cell line was treated with the proteasome inhibitor MG132, an agent capable of blocking Vif-mediated degradation of APOBEC3G, and the cells were subsequently lysed. […] The level of luc-APOBEC3G was expressed as relative light units (RLU). […]

## CC(C)C[C@@H](C=O)NC(=O)[C@H](CC(C)C)NC(=O)[C@H](CC(C)C)NC(=O)OCc1ccccc1 [MG132] (Cbz-Leu-Leu-Leu-aldehyde)
Vif/luc-APOBEC3G cells
  Vif-caused reduction in the level of luc-APOBEC3G protein: reversed
  reduction of RLU in the absence of the proteasome inhibitor relative to MG132-treated cells: approximately 20 fold
Vif/luc-APOBEC3G cells treated with MG132
  level of luc-APOBEC3G in cell lysate: 203333 RLU
